Test results from PubChem BioAssay (NCI).
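Results reflect a 48-hour exposure of cells in 96-well plates to compound at five concentrations. GI50 is the concentration that inhibits growth by half. TGI: total growth inhibition.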

How the values were obtained:
Assay in all cases: DTP human tumour cell line panel, 48 h
SR leukemia = system: SR leukemia
UACC-62 melanoma = system: UACC-62 melanoma
MALME-3M melanoma = system: MALME-3M melanoma
IGROV1 ovarian = system: IGROV1 ovarian
ACHN renal = system: ACHN renal
SN12C renal = system: SN12C renal
SF-268 CNS = system: SF-268 CNS
CCRF-CEM leukemia = system: CCRF-CEM leukemia
M14 melanoma = system: M14 melanoma
COLO 205 colon = system: COLO 205 colon
SK-MEL-2 melanoma = system: SK-MEL-2 melanoma
HL-60(TB) leukemia = system: HL-60(TB) leukemia
LOX IMVI melanoma = system: LOX IMVI melanoma
BT-549 breast = system: BT-549 breast
SK-OV-3 ovarian = system: SK-OV-3 ovarian
T-47D breast = system: T-47D breast
SK-MEL-28 melanoma = system: SK-MEL-28 melanoma
MCF7 breast = system: MCF7 breast
EKVX NSCLC = system: EKVX NSCLC
HCT-116 colon = system: HCT-116 colon
SW-620 colon = system: SW-620 colon
PC-3 prostate = system: PC-3 prostate
OVCAR-3 ovarian = system: OVCAR-3 ovarian
HS 578T breast = system: HS 578T breast
K-562 leukemia = system: K-562 leukemia
NCI-H226 lung = system: NCI-H226 lung
TK-10 renal = system: TK-10 renal
SNB-19 CNS = system: SNB-19 CNS
SNB-75 CNS = system: SNB-75 CNS
HCC-2998 colon = system: HCC-2998 colon
786-0 renal = system: 786-0 renal
OVCAR-4 ovarian = system: OVCAR-4 ovarian
A549 NSCLC = system: A549 NSCLC
A498 renal = system: A498 renal
OVCAR-8 ovarian = system: OVCAR-8 ovarian
NCI-H522 lung = system: NCI-H522 lung
U251 CNS = system: U251 CNS
MDA-MB-231 breast = system: MDA-MB-231 breast
DU-145 prostate = system: DU-145 prostate
SF-295 CNS = system: SF-295 CNS
HT29 colon = system: HT29 colon
SK-MEL-5 melanoma = system: SK-MEL-5 melanoma
KM12 colon = system: KM12 colon
HOP-92 NSCLC = system: HOP-92 NSCLC
HCT-15 colon = system: HCT-15 colon
NCI-H460 lung = system: NCI-H460 lung
RXF 393 renal = system: RXF 393 renal
MOLT-4 leukemia = system: MOLT-4 leukemia
SF-539 CNS = system: SF-539 CNS
OVCAR-5 ovarian = system: OVCAR-5 ovarian
UO-31 renal = system: UO-31 renal
RPMI-8226 leukemia = system: RPMI-8226 leukemia
NCI-H23 lung = system: NCI-H23 lung
HOP-62 NSCLC = system: HOP-62 NSCLC
NCI/ADR-RES ovarian = system: NCI/ADR-RES ovarian
UACC-257 melanoma = system: UACC-257 melanoma
MDA-MB-435 = system: MDA-MB-435

SMILES: COC(=O)[C@H](Cc1ccccc1)NC(=O)c1csc([C@@H](C[C@H](C(C)C)N(C)C(=O)[C@@H](NC(=O)[C@H]2CCCCN2C)C2CC2)OC(C)=O)n1
- GI50 (SR leukemia): 5.63 nM
- TGI (SR leukemia): > 25 µM
- GI50 (UACC-62 melanoma): 247 nM
- TGI (UACC-62 melanoma): > 25 µM
- GI50 (MALME-3M melanoma): 2160 nM
- TGI (MALME-3M melanoma): > 25 µM
- GI50 (IGROV1 ovarian): 45.2 nM
- TGI (IGROV1 ovarian): > 25 µM
- GI50 (ACHN renal): 150 nM
- TGI (ACHN renal): > 25 µM
- GI50 (SN12C renal): 103 nM
- TGI (SN12C renal): > 25 µM
- GI50 (SF-268 CNS): 111 nM
- TGI (SF-268 CNS): > 25 µM
- GI50 (CCRF-CEM leukemia): 21 nM
- TGI (CCRF-CEM leukemia): > 25 µM
- GI50 (M14 melanoma): 32.8 nM
- GI50 (COLO 205 colon): 48 nM
- TGI (COLO 205 colon): 362 nM
- GI50 (SK-MEL-2 melanoma): 492 nM
- TGI (SK-MEL-2 melanoma): > 25 µM
- GI50 (HL-60(TB) leukemia): 13.7 nM
- TGI (HL-60(TB) leukemia): 193 nM
- GI50 (LOX IMVI melanoma): 40.3 nM
- TGI (LOX IMVI melanoma): > 25 µM
- GI50 (BT-549 breast): 34.9 nM
- TGI (BT-549 breast): 556 nM
- GI50 (SK-OV-3 ovarian): 121 nM
- TGI (SK-OV-3 ovarian): > 25 µM
- GI50 (T-47D breast): > 25 µM
- TGI (T-47D breast): > 25 µM
- GI50 (SK-MEL-28 melanoma): 1010 nM
- TGI (SK-MEL-28 melanoma): > 25 µM
- GI50 (MCF7 breast): 10.8 nM
- TGI (MCF7 breast): > 25 µM
- GI50 (EKVX NSCLC): 119 nM
- TGI (EKVX NSCLC): > 25 µM
- GI50 (HCT-116 colon): 19.7 nM
- TGI (HCT-116 colon): > 25 µM
- GI50 (SW-620 colon): 16.7 nM
- TGI (SW-620 colon): > 25 µM
- GI50 (PC-3 prostate): 50.9 nM
- TGI (PC-3 prostate): > 25 µM
- GI50 (OVCAR-3 ovarian): 10.2 nM
- TGI (OVCAR-3 ovarian): 63 nM
- GI50 (HS 578T breast): 24.5 nM
- TGI (HS 578T breast): 14.5 µM
- GI50 (K-562 leukemia): 11.8 nM
- TGI (K-562 leukemia): > 25 µM
- GI50 (NCI-H226 lung): 2590 nM
- TGI (NCI-H226 lung): > 25 µM
- GI50 (TK-10 renal): 473 nM
- TGI (TK-10 renal): > 25 µM
- TGI (SNB-19 CNS): > 25 µM
- GI50 (SNB-75 CNS): 25.7 nM
- TGI (SNB-75 CNS): > 25 µM
- GI50 (HCC-2998 colon): 162 nM
- TGI (HCC-2998 colon): > 25 µM
- GI50 (786-0 renal): 64 nM
- TGI (786-0 renal): > 25 µM
- GI50 (OVCAR-4 ovarian): 1620 nM
- TGI (OVCAR-4 ovarian): > 25 µM
- GI50 (A549 NSCLC): 99.1 nM
- TGI (A549 NSCLC): > 25 µM
- GI50 (A498 renal): 69.3 nM
- TGI (A498 renal): 1670 nM
- GI50 (OVCAR-8 ovarian): 89.8 nM
- TGI (OVCAR-8 ovarian): > 25 µM
- GI50 (NCI-H522 lung): 6.54 nM
- TGI (NCI-H522 lung): 300 nM
- GI50 (U251 CNS): 66.9 nM
- TGI (U251 CNS): > 25 µM
- GI50 (MDA-MB-231 breast): 76.3 nM
- TGI (MDA-MB-231 breast): > 12.5 µM
- GI50 (DU-145 prostate): 21.8 nM
- TGI (DU-145 prostate): > 25 µM
- GI50 (SF-295 CNS): 33.4 nM
- TGI (SF-295 CNS): > 25 µM
- GI50 (HT29 colon): 17.5 nM
- TGI (HT29 colon): > 25 µM
- GI50 (SK-MEL-5 melanoma): 52.1 nM
- TGI (SK-MEL-5 melanoma): 3.37 µM
- GI50 (KM12 colon): 84.4 nM
- TGI (KM12 colon): > 25 µM
- GI50 (HOP-92 NSCLC): 137 nM
- TGI (HOP-92 NSCLC): 4.18 µM
- GI50 (HCT-15 colon): 91.5 nM
- TGI (HCT-15 colon): > 25 µM
- GI50 (NCI-H460 lung): 54.6 nM
- TGI (NCI-H460 lung): > 25 µM
- GI50 (RXF 393 renal): 35.1 nM
- TGI (RXF 393 renal): > 25 µM
- GI50 (MOLT-4 leukemia): 36.2 nM
- TGI (MOLT-4 leukemia): > 25 µM
- GI50 (SF-539 CNS): 37.6 nM
- TGI (SF-539 CNS): 194 nM
- GI50 (OVCAR-5 ovarian): 316 nM
- TGI (OVCAR-5 ovarian): > 25 µM
- GI50 (UO-31 renal): 258 nM
- TGI (UO-31 renal): > 25 µM
- GI50 (RPMI-8226 leukemia): 19 nM
- TGI (RPMI-8226 leukemia): > 25 µM
- GI50 (NCI-H23 lung): 146 nM
- TGI (NCI-H23 lung): > 25 µM
- GI50 (HOP-62 NSCLC): 74.9 nM
- TGI (HOP-62 NSCLC): > 25 µM
- GI50 (NCI/ADR-RES ovarian): 2050 nM
- TGI (NCI/ADR-RES ovarian): > 25 µM
- GI50 (UACC-257 melanoma): > 10.7 µM
- TGI (UACC-257 melanoma): > 25 µM
- GI50 (MDA-MB-435): 8.84 nM
- TGI (MDA-MB-435): 84.1 nM
